Data: paper PMC7955776 (Investigational new drugs, 2020)

Legend:
[1] = tested on: metastatic TNBC; conditions: in combination with first line docetaxel, metastatic TNBC patients; cited from earlier work
[2] = human, in vivo, iv, 80 mg/m2
[3] = clinical; conditions: human, in vivo, iv, 80 mg/m2
[4] = Paclitaxel plasma pharmacokinetics alone and in combination with RO4929097; conditions: 80 mg/m2 IV

Row | AUC INF [2] [ng·h/mL] | Half life [2] [h] | AUC(0-inf) [3] [ng·h/mL] | half-life [3] [h] | Paclitaxel PK alone (day -1) versus in combination with RO4929097 (day 15) [4] | SMILES | Partial response [1] [%] | Stable disease [1] [%]
1 |  |  |  |  |  | CCC[C@H](N[C@H]1CCc2cc(F)cc(F)c2C1)C(=O)Nc1cn(C(C)(C)CNCC(C)(C)C)cn1 [PF-03084014] | 16 | 36
2 | 4911 ± 1078 | 11.3 ± 2.5 | 4800 ± 1170 | 10.3 ± 2.5 | No significant differences | CC(=O)O[C@H]1C(=O)[C@@]2(C)[C@H]([C@H](OC(=O)c3ccccc3)[C@]3(O)C[C@H](OC(=O)[C@H](O)[C@@H](NC(=O)c4ccccc4)c4ccccc4)C(C)=C1C3(C)C)[C@]1(OC(C)=O)CO[C@@H]1C[C@@H]2O [Paclitaxel, paclitaxel] |  | 
